Tests used:
[1] = system: subcutaneous tumors of SKI; assay: Preliminary combination xenograft experiment; type: in vivo, irradiated NOD-SCID mice; conditions: for tumor growth compared to the control: MTX 40 mg/kg (MTD), Ara-C 300 mg/kg (MTD) or combination at one-half the MTD, all sacrificed by week three
Experimental: Given the experience that SKI-DLCL-1 is the most PDX resistant line in the panel, it was selected for these in vivo synergy experiments. […] All animals were treated with the maximum tolerated dose (MTD) of each drug, save the combination studies.

SKI-DLCL-1 cells = assay: Induction of apoptosis (YO-PRO-1/propidium iodide flow cytometry); type: cell-based, human; conditions: all drugs 1 nM, total exposure 72 hours, sequential: first drug 24 hours prior to second
Experimental: Ara-C, PDX and Gem in combined and scheduled exposures. In each case, the total exposure time was 72 hours. In sequential treatments, the first drug was administered 24 hours prior to the second drug.
To assess apoptosis occurring as a result of combination therapies, apoptosis was assessed using two well standardized techniques. In the first (YO-PRO), cell membrane permeability was determined by measuring fluorescence of treated and control cells. 2×10^7 SKI-DLBCL cells were treated with either MTX, Ara-C, Gem or PDX alone or combinations of drug given together or scheduled. All drugs were assayed at equimolar concentrations (i.e. 1 nM). The incubation conditions were modeled after the in vitro cytotoxicity experiments. Single agent drugs or combinations of all drugs studied without schedule considerations were incubated for 72 hours, while drugs that were studied in some schedule were introduced in a 24+48 incubation scheme (i.e. drug B added 24 hours following drug A, then incubated for an additional 48 hours for a total incubation time of 72 hours). Cells were then collected, washed twice and re-suspended at a concentration of 1×10^6/mL in DPBS. Membrane permeability was detected via the differential cellular permeability of the fluorescent dyes YO-PRO®-1 and propidium iodide by flow cytometry, as per the manufacturer's guidelines (Vybrant apoptosis kit #4, Molecular Probes, Eugene, Oreg.). In addition to monitoring apoptosis, cell cycle kinetic analyses were also performed on all treated cells based the propidium iodide binding. Apoptotic cells were noted to be permeable to the green fluorescent dye YO-PRO®-1 (em 530, FL-1), and impermeable to the red fluorescent dye propidium iodide (em 575, FL-3). Typically, […] cells allow the entrance of both dyes, whereas living cells are impermeable to both dyes.

SKI-DLBCL-1 xenograft = assay: Second combination xenograft experiment (FIG. 5); conditions: SKI-DLBCL; PDX and Gem at one-quarter of the MTD (15 mg/kg); MTX, Ara-C alone at MTD; ip twice weekly, 4 doses
Experimental: (§1) The same type of test was repeated to assess the in vivo efficacy of using combination therapies. […] Schedule dependent treatment was also determined by pretreating animals with PDX or MTX followed 24 hours later with Gem or Ara-C, respectively. One cohort of animals was treated with Gem followed by PDX. In all cases, the control animals received intraperitoneal injections of normal saline.
(§2) Tumor bearing mice were assessed for weight loss and tumor volume at least twice weekly for the duration of the experiment. The data are expressed as the average tumor volume (mm3) per group as a function of time. Tumors were assessed by measuring the two largest perpendicular axes (l=length, w=width) with standard calipers. Tumor volume was calculated using the formula 4/3 πr^3 where r=(l+w)/4. Animals were sacrificed when one dimensional tumor diameter exceeded 2.0 cm, or after loss of more than 10% of their body weight in accordance with institutional guidelines. Animals were housed in standard shoe box cages in temperature and humidity constant rooms on a 12 hour light and dark cycle. Food and water were supplied ad libitum. Animals were maintained in core animal facilities under an institute approved animal protocol.

[2] = system: human RL (transformed follicular) non-Hodgkin's lymphoma xenografts; assay: Subcutaneous lymphoma xenograft treatment; type: in vivo; conditions: MTX 40 mg/kg
From the text: (§3) In order to study the effects of PDX on lymphoma growth in vivo, subcutaneous transplantation models in NOD/SCID mice were generated using three established human lymphoma cell line representative of aggressive transformed FL (RL) and de novo extranodal DLBCL (HT; SKI-DLCL-1) histologies. Six to eight week old non-obsese diabetic severe combined immunodeficient (NOD/SCID) mice (Jackson Laboratories, Bar Harbor, Me.) were sub-lethally irradiated with […] from a gamma source and inoculated with 10×10^6 lymphoma cells via a subcutaneous route. When tumor volumes approached 100 mm^3, mice were divided into three groups, averaging 3-8 mice per group. Mice were treated with normal saline or the maximum tolerated dose (MTD) of MTX (40 mg/kg) or PDX (60 mg/kg) via an intraperitoneal route twice weekly for two weeks (four total doses). […] (Sirotnak, et al., Cancer Chemother. Pharmacol. 12: 26-30 (1984); Sirotnak et al., Cancer Chemother. Pharmacol. 42: 313-318 (1998).
(§4) Engraftment rates in this experiment ranged from 80 to 90%. Palpable tumors formed under the skin approximately 7-10 days after inoculation and were readily measurable with calipers. Mice with subcutaneous lymphoma growths survived an average of 40-50 days after inoculation.

[3] = system: human SKI-DLCL-1 (de novo diffuse large B cell) non-Hodgkin's lymphoma xenografts; assay: Subcutaneous lymphoma xenograft treatment; type: in vivo; conditions: MTX 40 mg/kg
From the text: as §3, §4

[4] = system: human HT (diffuse large B cell) non-Hodgkin's lymphoma xenografts; assay: Subcutaneous lymphoma xenograft treatment; type: in vivo; conditions: MTX 40 mg/kg; for Avg Tumor Diameter (mm ± SE): at the nadir of tumor regression
From the text: as §3, §4

SKI-DLBCL-1 xenografts = assay: TUNEL immunohistochemical staining for apoptosis in xenografts; type: in vivo, mice; conditions: day 21; four doses on days 0, 3, 7 and 10; MTX 40 mg/kg, PDX 60 mg/kg
Experimental: Immunohistochemical staining for apoptosis as measured by terminal deoxynucleotide transferase-mediated nick end-labeling (TUNEL) was performed on SKI-DLBCL-1 xenografts from mice sacrificed at day 21 following initiation of antifolate therapy. Mice received four doses of saline, MTX (40 mg/kg) or PDX (60 mg/kg) on days 0, 3, 7 and 10.

[5] = system: caspase 3 in SKI-DLCL-1 cells; assay: Caspase 3 activation (EnzChek Caspase-3 Assay Kit #2, Z-DEVD-R110 cleavage); type: cell-based, human; conditions: for Fluorescence at 485ex/527em: 1 nM, control 134.3; for Difference from control: fluorescence at 485ex/527em
Experimental: To further evaluate the activity of PDX and Gem combinations, Caspase activity was tested by EnzChek® Caspase-3 Assay Kit #2 (Molecular Probes) based upon the fluorometric detection of caspase-dependent Z-DEVD-R110 cleavage (rhodamine 110 bis-[N-CBZ-L-aspartyl-L-glutamyl-L-valyl-L-aspartic acid amide], a non-fluorescent bisamide), which, via a two step process, first yields the monoamide product (weakly fluorescent) and then the fluorescent product R110 (rhodamine 110, strongly fluorescent). Detection was performed on a Fluoroskan Ascent FL fluorescent plate reader (Thermo Lab Systems, Helsinki, Finland) according to the manufacturer's guidelines.

[6] = cited from earlier work
[7] = system: SKI-DLCL-1 lymphoma cells; assay: Trypan Blue Exclusion cytotoxicity assay of single agents and combinations; type: cell-based, human; conditions: MTX 10 nM, PDX 1 nM, Ara-C 40 nM, Gem 10 nM, control = 1
From the text: As set forth in greater detail in the examples herein, combination therapy using PDX and gemcitabine has been tested in vitro and in in vivo model systems for efficacy against lymphoma. Table 1 sets forth data obtained in a cytotoxicity assay (Example 2) using SKI-DLCL-1 lymphoma cells. SKI-DLCL-1 is a diffuse large b cell lymphoma (DLBCL) cell line that is particularly resistant to PDX.
In Table 1, the additive effect is in each case the % of control for the single agents multiplied together. The expected additive effect for PDX+Gem is better than for MTX and ara-C, because the agents are individually better. What is observed for both MTX/AraC combinations and PDX/Gem combinations is that the actual result is better than the predicted additive result. The extent of this synergism is quantified in Table 1 as (actual-additive)/additive so that the amount of reduction that occurs through the use of the combination is expressed as a percentage of the expected additive benefit.
To evaluate cytotoxicity of combination of PDX and GEM, a Trypan Blue Exclusion Assay was performed by aliquoting 5×10^5 SKI-DLBCL cells into each well of a 24 well plate with a final volume of 1 milliliter. Each drug was added in duplicate to the plate wells as follows: alone (MTX 10 nM, PDX 1 nM, Ara-C 40 nM, or Gem 10 nM), PDX+Gem or MTX+Ara-C for 48 h (hours). For the scheduled administration of drug, PDX or MTX alone were dispensed in additional duplicate wells. After 24 hours Gem and Ara-C were added to these wells, respectively, and incubated for 48 hours. At the end of incubation, 20 l of each cell culture was added to 20 l of trypan blue, after which […] was added to a hemocytometer (Hausser Scientific, Horsham, Pa.), where viable cells were counted based upon the presence (dead cells) or exclusion (live cells) of dye.

[8] = Second combination xenograft experiment (FIG. 5); conditions: SCID beige (CBSCBG-MM double), mouse, in vivo, ip
Experimental: as §1, §2

[9] = PDX 60 mg/kg ip twice weekly for two weeks

| SMILES | tumor growth compared to the control [1] | % change in apoptosis (SKI-DLCL-1 cells) [%] | xenograft outcome in words (SKI-DLBCL-1 xenograft) | Fluorescence at 485ex/527em [5] | Difference from control [5] | fraction of control [7] | MTD at 2 weeks [8] [mg/kg] | further results |
| --- | --- | --- | --- | --- | --- | --- | --- | --- |
| CN(Cc1cnc2nc(N)nc(N)c2n1)c1ccc(C(=O)N[C@@H](CCC(=O)O)C(=O)O)cc1 [MTX, methotrexate] | modest growth delay | −12.24 | sacrificed early due to excessive tumor growth | 131 | −3.3 | 0.92 | – | Complete Regression (no/total) ([2]; PDX 60 mg/kg): 0/12; tumor regressions (% of mice) ([2]; PDX 60 mg/kg): no regressions; Avg Tumor Diameter (mm ± SE) [2, 9]: 10.9 ± 0.5 mm; Avg change in Tumor Volume (mm^3 ± SE) [2, 9]: +619 ± 108 mm^3; Complete Regression (no/total) ([3]; PDX 60 mg/kg): 0/10; tumor regressions / complete remissions (% of mice) ([3]; PDX 60 mg/kg): no regressions; Avg Tumor Diameter (mm ± SE) [3, 9]: 9.5 ± 0.4 mm; Avg change in Tumor Volume (mm^3 ± SE) [3, 9]: +299 ± 58 mm^3; Complete Regression (no/total) ([4]; PDX 60 mg/kg): 0/7; complete tumor regression (% of mice) ([4]; PDX 60 mg/kg): no tumor regression; Avg change in Tumor Volume (mm^3 ± SE) [4, 9]: +300 ± 225 mm^3; Avg Tumor Diameter (mm ± SE) ([4]; PDX 60 mg/kg): 8.7 ± 2.0 mm; Avg Tumor Diameter (mm ± SE) ([4]; PDX 60 mg/kg, listed as MDX): 8.7 mm; apoptotic cells in tumor tissue (TUNEL) (SKI-DLBCL-1 xenografts): little or no evidence of apoptotic cells; maximum tolerated dose (MTD) ([6]; intraperitoneal, twice weekly for two weeks): 40 mg/kg; toxic deaths at the MTD ([6]; nude mice): no toxic deaths |
| Nc1ccn([C@@H]2O[C@H](CO)[C@@H](O)[C@@H]2O)c(=O)n1 [Ara-C, cytarabine] | modest growth delay | −3.08 | sacrificed early due to excessive tumor growth | 141.1 | 6.8 | 0.76 | 300 | – |
| Nc1ccn([C@@H]2O[C@H](CO)[C@@H](O)C2(F)F)c(=O)n1 [Gem, 1-(2′,2′-difluoro-β-D-arabinofuranosyl) cytosine] | – | 33.76 | – | 195.4 | 61.1 | 0.72 | 60 | tumor volume as % of initial tumor volume ([1]; 60 mg/kg, regrowth by day 44 after initial response): 318% |

Reference: patent US7939530B2, “Treatment of lymphoma using 10-propargyl-10-deazaaminopterin and gemcitabine” (Sloan-Kettering Institute for Cancer Research, priority 2004, dated 2011)
